Measured values taken from patent US20250195596A1, “COMPOSITION FOR PREVENTING OR TREATING RETINAL DISEASE, CONTAINING CENTELLA ASIATICA EXTRACT” (GENENCELL INC., priority 2018, published 2025).

Test system: ARPE-19 cells
Assay: Cell protection from oxidative stress caused by A2E (MTT)
Assay type: cell-based
Settings: ARPE-19, A2E accumulated 3 days, 30 μM, 48 hours, UV 5 minutes; in % (unit assumed)
Method: To determine the effect of inhibiting macular degeneration, the cell death inhibitory effect of A2E was measured. As test cells, ARPE-19 cells, which are retinal pigment epithelial cells, were used, and the medium, medium composition, and experimental conditions were the same as in Experimental Example 1. ARPE-19 cells were dispensed into a 24-well plate at a concentration of 3×10^4 cells/well and cultured for 24 hours, and then A2E was accumulated at a concentration of 3 µM for 3 days. In order to measure the effect of protecting cells from oxidative stress caused by A2E, the cells were treated with 25 μg/mL, 50 μg/mL, and 100 μg/mL of the 50% alcohol extract of Centella asiatica, and as a positive control, the cells were treated with 30 μM of lutein, which is known to have an inhibitory effect on macular degeneration, and cultured for 48 hours, and after 48 hours, the cells were irradiated with ultraviolet rays using a UV lamp for 5 minutes. The cell growth rate was measured at an absorbance of 570 nm using an MTT reagent, and the absorbance of each test solution was measured and compared with a control not treated with A2E.

## CC1=C[C@H](O)CC(C)(C)[C@H]1/C=C/C(C)=C/C=C/C(C)=C/C=C/C=C(C)/C=C/C=C(C)/C=C/C1=C(C)C[C@@H](O)CC1(C)C [Lutein, lutein]
  cell growth rate compared with a control not treated with A2E: 71.5 ± 8.22
